Test results published in publication PMC9785144, “Metal Coordination and Biological Screening of a Schiff Base Derived from 8-Hydroxyquinoline and Benzothiazole” (Pharmaceutics, 2022).

Columns and labels:
HCT-116 cells [1] = test: Wound-healing migration assay, HCT-116; assay type: cell-based, human; settings: HCT-116, 40 μM, at 22 h (control 50%)
Procedure: To assess cellular migration in the presence or absence of tested compounds, HCT-116 and CT-26 cells were plated at 1.5 × 10^5 and 3 × 10^5 cells/mL in a 12-well plate (1 mL/well) and were allowed to adhere and grow until reaching around 80–90% confluence. A sterile 10 μL pipette tip was used to wound the cell monolayer, followed by a washing step with PBS to remove debris. Then, cells were incubated with the tested compounds suspended in RPMI-1640 (CT-26) or DMEM media (HCT-116) supplemented with 2% FBS and 100 IU/mL of penicillin and 100 μg/mL streptomycin (Gibco, Thermo Fisher Scientific, Waltham, MA, USA), and hereafter designated as RPMI 2% and DMEM 2%, respectively. Under the above mentioned culture conditions, CT-26 cells were incubated with [Ni(HL)(acetate)] or [Ru(HL)Cl(DMSO)] at concentrations of 10 and 15 μM, respectively. […] The positive control, 5-FU, was tested at 1.5 and 40 μM for CT-26 and HCT-116, respectively. Negative control group was constituted by cells maintained in RPMI 2% (CT-26) and DMEM 2% (HCT-116). Images of the wound closure were taken beneath the stage of a Zeiss Axiovert 200 inverted microscope, using a 10× objective and a digital camera (CoolSNAP EZ, Photometrics, Huntington Beach, CA, USA) and recorded by the Metafluor Software at 0, 2, 4, 8, 18, 20 and 22 h following cell monolayer scratching (Molecular Devices, Sunnyvale, CA, USA). […]

CT-26 colon cancer cells = test: MTT antiproliferative assay, CT-26; assay type: cell-based, murine; settings: Mus musculus, CT26; CT-26, MTT, 48 h incubation
Procedure: (§1) Murine colon cancer CT-26 (ATCC® CRL-263™) cells were cultured in RPMI-1640, supplemented with 10% foetal bovine serum (FBS) and 100 IU/mL of penicillin and 100 μg/mL streptomycin (Gibco, Thermo Fisher Scientific, Waltham, MA, USA), hereafter designated as complete culture medium. Human colon cancer HCT-116 (ATCC® CCL-247™), human melanoma A375 (ATCC® CCL-1619™), murine melanoma B16F10 (ATCC® CCL-6475™) cells and human epidermal keratinocytes (HaCaT) were maintained in Dulbecco’s modified Eagle’s medium (DMEM) with high-glucose (4500 mg/L) (Sigma-Aldrich, St. Louis, MO, USA), supplemented with 10% FBS and 100 IU/mL of penicillin and 100 μg/mL streptomycin (Gibco, Thermo Fisher Scientific, Waltham, MA, USA), also designated as complete culture medium. The cell lines were maintained at 37 °C in a 5% CO2 environment and cells were trypsinised every 2–3 days when 80% confluence was reached.
(§2) Negative controls were cells maintained in complete culture medium.

CT-26 cells = test: Guava ViaCount cell viability assay; assay type: cell-based, murine; settings: CT-26, 48 h incubation
Procedure: CT-26 cells were incubated with [Ni(HL)(acetate)] or [Ru(HL)Cl(DMSO)] at concentrations of 5 and 10 μM or 10 and 20 μM, respectively. For the HCT-116 cell line, the tested concentrations were 5 and 7.5 μM, and 7.5 and 12.5 μM, respectively. The positive control group, 5-FU, was tested at 0.5 and 2 μM, and at 20 and 40 μM for CT-26 and HCT-116, respectively. Negative control group was constituted by cells in the presence of complete culture medium. After a 48 h incubation period, cell culture supernatants were collected, and adherent cells were detached using TrypLE™ Express (Invitrogen). Detached cells were then added to supernatants and the wells were washed using PBS with 2% FBS to recover any remaining cells. The recovered suspension was added to the previously collected cells and supernatants and centrifuged for 5 min at 650× g. The supernatants were discarded, and cells were suspended in PBS with 2% FBS. Then, on a 96-well plate, 20 μL of cell suspension was incubated with 180 μL of Guava ViaCount® reagent (Merck Millipore, Darmstadt, Germany) for 5 min at r. t. Using a Guava EasyCyte 5HT Flow cytometer (Guava Technologies, Inc., Hayward, CA, USA), data were collected and analysed with the ViaCount software module with the acquisition of 10,000 events per sample. GraphPad Prism®8 was used to analyse cell proliferation (GraphPad Software, San Diego, CA, USA). […]

[2] = system: HCT-116 colon cancer cells; test: MTT antiproliferative assay, HCT-116; assay type: cell-based, human; settings: Homo sapiens; HCT-116, MTT, 48 h incubation
Procedure: as §1, §2

HCT-116 cells [3] = system: HCT-116 cells; set-up: method as in PMID 34389368, PMID 34562873; settings: HCT-116, concentrations around 20 μM; cited from earlier work
HCT-116 cell line = system: HCT-116 cell line; set-up: method as in PMID 26961176; settings: cited from earlier work
cancer cells = settings: in vitro; cited from earlier work
[4] = biological target: bovine serum albumin (BSA) (Bos taurus, UniProt P02769); test: Albumin binding by fluorescence quenching and circular dichroism; settings: BSA ca. 20–25 μM, bands centred at ca. 360 nm, compound 5 to 70 μM
Procedure: The concentration of BSA in the experiments was ca. 1.5 μM (in aqueous PBS). The fluorescence emission spectra were recorded between 310 and 575 nm, with λex = 295 nm. Successive additions of the complexes were done directly to the cuvette (optical path 1 cm) and the fluorescence emission spectra were recorded for each one under the same conditions. Blank assays for each sample, consisting in solutions with the same concentration of complex and no BSA, were recorded and subtracted to the corresponding emission spectra containing the fluorophore. The UV-vis spectra of the sample solutions were used to correct the emission spectra, minimizing inner filter and reabsorption phenomena interference.
The concentration of BSA in the experiments was ca. 20–25 μM (in aqueous PBS). The circular dichroism (CD) spectra are an average of three scan accumulations, recorded between 300 and 500 nm, with bandwidth of 1 nm and response of 2 s, using a scanning speed of 100 nm/min. Successive additions of the complexes stock solutions in DMSO were done directly to the cuvette (1 cm) and the CD spectra were recorded under the same conditions after 10 min equilibration. Induced CD spectra were obtained as the CD spectrum of compound-BSA mixture minus the CD spectrum of BSA alone and are expressed as ellipticity in millidegrees.

[5] = Stability in PBS pH 7.4 without and with BSA (UV-vis); assay type: physicochemical; settings: PBS pH 7.4, 25 °C, <1% DMSO, without BSA
Procedure: The complexes were monitored for their stability in PBS, pH 7.4 at 25 °C in the absence and presence of equimolar amounts of bovine serum albumin (BSA). Stock solutions of each complex were prepared in DMSO and then diluted in PBS in order to obtain final concentrations of 20 to 30 µM and ensuring that the organic solvent was less than 1% (v/v). For the assays with BSA, stock solutions of the protein were prepared in PBS using 20 mg of lyophilised powder in 5 mL solvent, which were allowed to hydrate for 24 h in the refrigerator. Samples were monitored by UV-vis absorption spectroscopy for 6 h and a final measurement was also taken after 24 h.

Sequence of bovine serum albumin (BSA) (P02769 25-607): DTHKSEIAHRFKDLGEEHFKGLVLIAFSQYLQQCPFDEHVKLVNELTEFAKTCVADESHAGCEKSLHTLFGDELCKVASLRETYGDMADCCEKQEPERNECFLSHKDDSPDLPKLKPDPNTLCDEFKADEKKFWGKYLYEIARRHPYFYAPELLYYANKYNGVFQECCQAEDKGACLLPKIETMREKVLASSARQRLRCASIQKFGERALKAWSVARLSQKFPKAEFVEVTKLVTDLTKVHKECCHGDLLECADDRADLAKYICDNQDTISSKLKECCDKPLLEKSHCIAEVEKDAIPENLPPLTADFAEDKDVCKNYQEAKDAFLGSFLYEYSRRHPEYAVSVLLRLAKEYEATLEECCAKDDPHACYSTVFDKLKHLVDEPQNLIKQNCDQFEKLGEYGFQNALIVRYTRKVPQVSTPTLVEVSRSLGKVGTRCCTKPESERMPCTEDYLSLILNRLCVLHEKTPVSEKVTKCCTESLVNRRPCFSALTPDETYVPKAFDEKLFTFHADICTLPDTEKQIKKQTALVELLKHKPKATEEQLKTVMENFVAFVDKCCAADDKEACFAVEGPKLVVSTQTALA

Compound: O=c1[nH]cc(F)c(=O)[nH]1 [5-FU, 5-fluorouracil, reference compound]
- maximum wound closure (HCT-116 cells [1]): 39%
- IC50 (CT-26 colon cancer cells): 2.7 ± 1.9 µM
- cell viability by Guava ViaCount (CT-26 cells): higher percentage of dead and apoptotic cells
- IC50 [2]: 43.8 ± 2.3 µM
- cell cycle arrest (HCT-116 cells [3]): arrested cell cycle at S phase

Compound: CS(C)=O.[Cl-].[Cl-].[Cl-].[Cl-].[Ru+3].c1c[nH+]c[nH]1.c1c[nH]cn1 [NAMI-A]
- effect on cell adhesion and migration (HCT-116 cell line): inhibitory effect in reducing cell adhesion and migration
- cytotoxicity against cancer cells (cancer cells): minimal cytotoxicity
- fold lower activity than cisplatin (cancer cells): 1000 fold

Compound: [O]=[V]([O]c1cccc2ccc(/C=N/Nc3nc4ccccc4s3)nc12)[O]c1cccc2ccc(/C=N/Nc3nc4ccccc4s3)nc12 [[VO(HL)2]]
- induced CD bands with BSA [4]: high intensity induced CD bands
- solubility and stability in PBS buffered solutions [5]: oxidation of the metal centre likely takes place
